# Results taken from patent US9403786B2, “Anti-inflammatory compounds” (University of South Australia, priority 2009, dated 2016).
# System: TPA-induced mouse ear oedema
# Experiment: TPA-induced mouse ear oedema model
# Format: in vivo, Male Balb/C mice
# Method: Anti-inflammatory activity was measured in the mouse ear oedema model using 12-O-tetradeconoylphorbol-13-acetate (TPA) (Sigma) or croton oil as the inducer of inflammation (Sanchez, T and Moreno, J 1999, Role of leukocyte influx in tissue prostaglandin H synthase-2 overexpression induced by phorbol ester and arachidonic acid in skin, Biochemical Pharmacology, 58, 877-879.). Male Balb/C mice 7-9 weeks old and weighing 20-25 g were used. Mice were housed in cages at constant room temperature (20±2° C.) with access to food (standard rat/mouse pellet) and water ad libitum. A 12 hr day/night cycle was maintained in the animal holding facility (Reid building animal house, University of South Australia) and all experiments were carried out during the day phase.
# Baseline measurements of ear thickness were measured using a digital micrometer (±0.001 mm, Mitutoyo, Japan) prior to the experiment. TPA (2.5 μg/ear), which was dissolved in acetone, was then applied in a volume of 20 μL to the inner surface of the right ear and 20 μL of acetone to the left ear as control. After thirty minutes the test samples, which were dissolved in 80% ethanol, were applied to the inner surface of the right ear and 80% ethanol on the left ear to the respective treatment groups. Betamethasone 17,21-dipropionate (Sigma) (0.9 μmol/ear) was used as a positive control. Multi-dose experiments were conducted over the range 0.005-1.83 μmol/ear. At 2 h, 4 h, 6 h, 8 h, 24 h and 48 h after the application, the ear thicknesses were measured using a digital micrometer. A non-treated control group to which only croton oil or TPA were applied was used as a measure of maximum inflammation achieved with percent inhibition of inflammation of test sample being calculated relative to this group. Following completion of the experiment, mice were euthanized by inhalation of isoflurane followed by cervical dislocation.
substance,measurement,setting,value
"15,16-epoxy-8(α)-(benzoyloxy)methyl-cleroda-3,13(16), 14-trien-18-oic acid [Compound E]",anti-inflammatory activity,TPA-induced mouse ear oedema model,significant anti-inflammatory activity
same,maximum inhibition,dose of 0.91 μmol,76.4±7.3%
same,effect at lower concentrations,doses lower than 1.83 μmol/ear,no observable effect
same,activity when compared to TPA only control,"highest dose tested 1.83 μmol/ear, p<0.05",some significant level of activity
